Laboratory results as given in ChEMBL document CHEMBL3632520, “Correlation of antioxidant activities with theoretical studies for new hydrazone compounds bearing a 3,4,5-trimethoxy benzyl moiety” (Eur J Med Chem, 2015).
Converted amounts (≈) assume the structure as drawn.

Legend:
Assay type in all cases: physicochemical
[1] = Antioxidant activity assessed as DPPH radical scavenging activity measured as discoloration incubated for 30 mins in dark relative to control; conditions: 0.5 h
[2] = Antioxidant activity assessed as DPPH radical scavenging activity measured as discoloration incubated for 30 mins in dark
[3] = Antioxidant activity assessed as ferric ion reducing activity using fe3+-TPTZ assessed as fe2+-TPTZ formation after 30 mins by FRAP assay; conditions: 0.5 h

inhibition (INH) [1]	IC50 [2]	Activity [3]	SMILES
10.8%	> 100 µg/mL	27 µM	CCOC(=O)c1ccc(OCc2cc(OC)c(OC)c(OC)c2)cc1
37.2%	264 µg/mL (≈ 794 µM)	3515 µM	COc1cc(COc2ccc(C(=O)NN)cc2)cc(OC)c1OC
15.6%	> 100 µg/mL	125 µM	COc1cc(COc2ccc(C(=O)N/N=C/c3cc(Br)cc(Cl)c3O)cc2)cc(OC)c1OC
75.3%	62 µg/mL (≈ 113 µM)	1096 µM	COc1cc(COc2ccc(C(=O)N/N=C/c3cc(C(C)(C)C)c(O)c(C(C)(C)C)c3)cc2)cc(OC)c1OC
57.9%	75 µg/mL (≈ 151 µM)	2087 µM	COc1cc(/C=N/NC(=O)c2ccc(OCc3cc(OC)c(OC)c(OC)c3)cc2)cc(OC)c1O
53.3%	106 µg/mL (≈ 221 µM)	1844 µM	CCOc1cc(/C=N/NC(=O)c2ccc(OCc3cc(OC)c(OC)c(OC)c3)cc2)ccc1O
10.4%	> 100 µg/mL	1609 µM	COc1cc(COc2ccc(C(=O)N/N=C/c3ccc(OC)c(OC)c3OC)cc2)cc(OC)c1OC
10.4%	> 100 µg/mL	1365 µM	COc1cc(/C=N/NC(=O)c2ccc(OCc3cc(OC)c(OC)c(OC)c3)cc2)cc(OC)c1OC
9.3%	> 100 µg/mL	1819 µM	COc1cc(COc2ccc(C(=O)N/N=C/c3cccc(O)c3)cc2)cc(OC)c1OC
9.6%	> 100 µg/mL	26 µM	COc1cc(COc2ccc(C(=O)N/N=C/c3ccccc3O)cc2)cc(OC)c1OC
18.7%	> 100 µg/mL	3056 µM	COc1cc(COc2ccc(C(=O)N/N=C/c3ccc(O)cc3)cc2)cc(OC)c1OC
90.6%	40 µg/mL (≈ 227 µM)	2562 µM	O=C1O[C@H]([C@@H](O)CO)C(O)=C1O [ASCORBIC ACID]
54.8%	99.7 µg/mL (≈ 452 µM)	2837 µM	Cc1cc(C(C)(C)C)c(O)c(C(C)(C)C)c1 [BUTYLATED HYDROXYTOLUENE]
